Measurements from patent US8110686B2 (Chugai Seiyaki Kabushiki Kaisha, priority 2001, dated 2012).
Blank lines part the entries; values can stand above or below the compound they belong to.

Assays:
[1] = biological target: T1, malonyl-CoA decarboxylase prepared from rat heart (Rattus norvegicus, UniProt Q920F5); assay: In vitro MCD inhibitory assay (spectrophotometric, 96 well); type: biochemical; conditions: read-out: IC50 of the MCD inhibitors
T1 construct: malonyl-CoA decarboxylase prepared from rat heart; from tissue; host or cells: rat heart
T1 sequence (Q920F5 39-492): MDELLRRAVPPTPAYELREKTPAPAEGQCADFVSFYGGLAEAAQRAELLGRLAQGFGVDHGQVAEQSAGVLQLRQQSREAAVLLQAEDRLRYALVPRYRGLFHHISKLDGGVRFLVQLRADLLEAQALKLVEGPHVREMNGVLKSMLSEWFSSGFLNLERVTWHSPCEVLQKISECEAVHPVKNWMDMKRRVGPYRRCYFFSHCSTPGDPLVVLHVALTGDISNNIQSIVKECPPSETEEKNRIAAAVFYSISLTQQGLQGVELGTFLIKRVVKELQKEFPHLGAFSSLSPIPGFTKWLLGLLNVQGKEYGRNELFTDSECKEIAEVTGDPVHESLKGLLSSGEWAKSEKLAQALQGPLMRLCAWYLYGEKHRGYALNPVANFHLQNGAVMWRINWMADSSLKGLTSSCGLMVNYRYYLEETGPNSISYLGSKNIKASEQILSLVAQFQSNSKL
Method: The following reagents are added into a 96 well titer plate: Tris-HCl buffer, 20 μL; DTE, 10 μL; l-malate, 20 μL; NAD, 10 μL; NADH, 25 μL; water, 80 μL; malic dehydrogenase, 5 μL. The contents are mixed and incubated for 2 min followed by the addition of 5 μL of citrate synthase. […] The content is incubated and absorbence at […] is measured.
Active compounds are characterized by the concentration of the compound that caused 50% inhibition of MCD activity (IC50).

[2] = test system: isolated working hearts from male Sprague-Dawley rats; assay: Glucose oxidation and fatty acid oxidation measurement in the perfused rat heart; conditions: isolated perfused rat heart assay; versus ranolazine or trimetazidine
Method: Isolated working hearts from male Sprague-Dawley rats are subjected to a 60-minute aerobic perfusion period with a modified Krebs-Henseleit solution containing 5 mmol/L glucose; 100 μU/mL insulin; 3% BAS; and 1.2 mmol/L palmitate. Working hearts are used in these studies to approximate the metabolic demand of the heart seen in vivo. (Kantor et al., Circulation Research 86:580-588 (2000)). The test compound is added 5 minutes into the perfusion period.
Glucose oxidation rates are determined by the quantitative collection of ^14CO2 produced by hearts perfused with buffer containing […]. Rates of fatty acid oxidation are determined by the quantitative collection of ^14CO2 produced by hearts perfused with buffer containing [^14C]palmitate (McNeill, J. H. in “Measurement of cardiovascular function”, chapter 2, CRC press, New York (1997)).
Active compounds are characterized by an increase in glucose oxidation as compared to control experiment (DMSO). The compounds that caused statistically significant increases in glucose oxidation are considered to be active. The preferred compounds cause statistically significant increases in glucose oxidation at 20 μM. Statistical significance was calculated using the Student's t test for paired or unpaired samples, as appropriate. The results with P<0.05 are considered to be statistically significant.

IC50 [1]: 42 nM
Compound: CC(C)N(C(=O)Nc1ccc(CC(=O)O)cc1)c1ccc2nc(S)sc2c1 [Table 3; entry 17]

IC50 [1]: 1600 nM
Compound: CC(C)N(C(=O)OCCOCc1ccccc1)c1ccc2nc(S)sc2c1 [Table 4; entry 6]

melting point: > 266 °C
Compound: O=C1CNC(=S)N1c1ccc2nc(S)sc2c1 [Table 5; entry 1, 3-(2-mercapto-1,3-benzothiazol-6-yl)-2-thioxoimidazolidin-4-one]

IC50 [1]: 52 nM
Compound: CC(C)N(C(=O)Nc1ccc(C(F)(F)F)cc1)c1ccc2nc(S)sc2n1 [Table 7; entry 8]

IC50 [1]: 98 nM
melting point: 107.5 to 109 °C
Compound: CCN(C(=O)COc1ccccc1)c1ccc2nc(S)sc2n1 [Table 8; entry 1, N-ethyl-N-(2-mercapto-thiazolo[5,4-b]pyridin-5-yl)-2-phenoxy-acetamide]

IC50 [1]: 25 nM
Compound: CC(C)N(C(=O)c1ccc(C(F)(F)F)cc1)c1ccc2nc(S)sc2n1 [Table 8; entry 7]
effects in metabolism shift compared with known metabolism modulators [2]: more profound effects in metabolism shift than the known metabolism modulators such as ranolazine or trimetazidine

More lines, now with the values behind:

Compound: CC(C)CN(C(=O)Nc1ccc(C(F)(F)F)cc1)c1ccc2nc(S)sc2c1 [Table 3; entry 1, N-(2-mercapto-1,3-benzothiazol-6-yl)-N-(2-methylpropyl)-N′-[4-(trifluoromethyl)phenyl]urea]
IC50 [1]: 31 nM

Compound: CC(C)CN(C(=O)Nc1ccc(C#N)cc1)c1ccc2nc(S)sc2c1 [Table 3; entry 3]
IC50 [1]: 93 nM

Compound: CC(C)N(C(=O)Nc1ccc(C(F)(F)F)cc1)c1ccc2nc(S)sc2c1 [Table 3; entry 16]
IC50 [1]: 23 nM
effects in metabolism shift compared with known metabolism modulators [2]: more profound effects in metabolism shift than the known metabolism modulators such as ranolazine or trimetazidine

Compound: CC(C)N(C(=O)Oc1ccc(Cl)cc1)c1ccc2nc(S)sc2c1 [Table 4; entry 4]
IC50 [1]: 75 nM

Compound: CCCCOc1ccc(NC(=O)N(CC)c2ccc3nc(S)sc3n2)cc1 [Table 7; entry 1, 3-(4-butoxy-phenyl)-1-ethyl-1-(2-mercapto-thiazolo[5,4-b]pyridin-5-yl)-urea]
IC50 [1]: 62 nM
melting point: 134.3 to 135 °C
